# What was measured:
# [1] = tested on: Radical scavenging activity
# Description: Antioxidant activity assessed as DPPH radical scavenging activity incubated at 40 degC in dark after 30 mins
# Tyrosinase [2] = biological target: T1, Tyrosinase (Agaricus bisporus, UniProt O42713)
# T1 sequence (O42713 whole entry): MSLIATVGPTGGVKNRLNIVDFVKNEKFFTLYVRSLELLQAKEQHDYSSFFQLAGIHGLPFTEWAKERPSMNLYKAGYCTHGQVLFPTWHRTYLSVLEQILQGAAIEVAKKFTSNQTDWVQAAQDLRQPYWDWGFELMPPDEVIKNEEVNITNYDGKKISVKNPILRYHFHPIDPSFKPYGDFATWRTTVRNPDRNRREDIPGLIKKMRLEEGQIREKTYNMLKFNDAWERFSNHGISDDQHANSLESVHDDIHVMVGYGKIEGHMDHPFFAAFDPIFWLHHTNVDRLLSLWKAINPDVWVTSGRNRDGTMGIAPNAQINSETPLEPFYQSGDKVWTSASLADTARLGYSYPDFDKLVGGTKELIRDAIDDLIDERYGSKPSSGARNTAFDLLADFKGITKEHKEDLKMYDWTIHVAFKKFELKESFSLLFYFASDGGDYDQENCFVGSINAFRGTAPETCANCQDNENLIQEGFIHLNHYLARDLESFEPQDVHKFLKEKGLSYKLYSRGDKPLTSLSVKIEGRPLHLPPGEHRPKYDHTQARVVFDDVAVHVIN
# Description: Inhibition of mushroom tyrosinase activity after 150 mins by spectrophotometry
# Tyrosinase [3] = biological target: T1, Tyrosinase; remark: listed apart in the source
# Description: Inhibition of mushroom tyrosinase activity after 30 mins by spectrophotometry
# Tyrosinase [4] = biological target: T1, Tyrosinase; remark: listed apart in the source
# Description: Inhibition of mushroom tyrosinase activity after 90 mins by spectrophotometry
# [5] = Ratio of Trolox IC50 to compound IC50 for FeCl2-induced lipid peroxidation; assay type: physicochemical
# [6] = Ratio of Trolox IC50 to compound IC50 for DPPH radical scavenging activity
# [7] = Ratio of Trolox IC50 to compound IC50 for ABTS radical scavenging activity
Compound,IC50 [1] [µM],IC50 (Tyrosinase [2]) [µM],IC50 (Tyrosinase [3]) [µM],IC50 (Tyrosinase [4]) [µM],Ratio IC50 [5],Ratio IC50 [6],Ratio IC50 [7]
COc1ccc(CC(=O)c2cc(O)c(C)c(C)c2O)cc1,21.9,–,–,–,–,–,–
O=C(Cc1ccc(O)cc1)c1ccc(O)cc1O,25.2,172,178,136,–,–,–
COc1ccc(CC(=O)c2ccc(O)cc2O)cc1 [ONONETIN],57.4,181,78.9,160,–,–,–
O=C(Cc1ccc(O)cc1)c1c(O)cc(O)cc1O,22.8,261,> 300,> 300,–,–,–
COc1ccc(CC(=O)c2ccc(O)c(O)c2O)cc1OC,4.34,140,229,132,5,–,–
COc1ccc(CC(=O)c2c(O)cc(O)cc2O)cc1,10.8,230,71,214,–,–,–
O=C(Cc1ccccc1)c1c(O)cc(O)cc1O,12.2,–,–,–,–,–,–
COc1ccc(C(=O)Cc2ccc(O)cc2)c(O)c1O,25.7,46.1,43.4,43.1,–,–,–
O=C(Cc1ccc(O)cc1)c1cc(O)c(O)cc1O,0.69,–,–,–,–,13,–
O=C(Cc1ccc(O)cc1)c1ccc(O)c(O)c1O,5.69,> 500,> 300,> 300,–,–,10
COc1ccc(CC(=O)c2c(O)cc(O)cc2O)cc1OC,1.35,–,–,–,–,–,–
COc1ccc(CC(=O)c2cc(O)c(O)cc2O)cc1,21.5,197,84.4,144,–,–,–
Cc1c(C)c2c(c(C)c1O)CCC(C)(C(=O)O)O2 (stereo not given) [TROLOX],9.2,–,–,–,–,–,–
O=C1O[C@H]([C@@H](O)CO)C(O)=C1O [ASCORBIC ACID],73.7,–,–,–,–,–,–
COc1cc(O)c(C(=O)Cc2ccccc2)cc1O,20.3,–,–,–,–,–,–
COc1ccc(CC(=O)c2ccc(O)c(O)c2)cc1OC,2.53,–,–,–,–,–,–
COc1ccc(CC(=O)c2ccc(O)cc2O)cc1OC,35.1,240,112,209,–,–,–
COc1ccc(CC(=O)c2ccc(O)c(O)c2)cc1,75.9,178,> 300,168,–,–,–
COc1ccc(CC(=O)c2ccc(O)c(O)c2O)cc1,21.6,212,> 300,203,–,–,–
